Active and inactive are the calls of the source. The calls are words filed in the database; no cut-off is given here.
Tests used:
[1] = system: SH-SY5Y; test: Antiproliferative activity against human SH-SY5Y cells assessed as cell growth inhibition incubated for 72 hrs by MTT assay; assay type: functional, cell-based
[2] = system: CCRF-CEM; test: Induction of apoptosis in human CCRF-CEM cells incubated for 48 hrs by Hoechst staining based fluorescent microscopy; assay type: functional, cell-based; settings: dose 1-4 µM
[3] = system: CCRF-CEM; test: Induction of cell cycle arrest in human CCRF-CEM cells assessed as cell accumulation at S phase at 1 uM incubated for 24 hrs by PI staining based flow cytometry analysis (reference value: 15.5 %); assay type: functional
[4] = system: CCRF-CEM; test: Induction of apoptosis in human CCRF-CEM cells assessed as late apoptotic cells at 4 uM incubated for 48 hrs by Annexin V-FITC/PI staining based flow cytometry (reference value: 3.2 %); assay type: functional
[5] = system: CCRF-CEM; test: Induction of cell cycle arrest in human CCRF-CEM cells assessed as cell accumulation at G2/M phase at 0.25 uM incubated for 24 hrs by PI staining based flow cytometry analysis (reference value: 61.3 %); assay type: functional
[6] = system: CCRF-CEM; test: Induction of cell cycle arrest in human CCRF-CEM cells assessed as cell accumulation at G1 phase at 2 uM incubated for 24 hrs by PI staining based flow cytometry analysis (reference value: 24.1 %); assay type: functional
[7] = system: CCRF-CEM; test: Induction of DNA damage in human CCRF-CEM cells assessed as increase in gammaH2AX phosphorylation incubated for 24 hrs by DAPI staining based immunofluorescence microscopic analysis; assay type: functional, cell-based; settings: dose 1-4 µM
[8] = Selectivity index, ratio of IC50 for human K562 cells to IC50 for human CCRF-CEM cells
[9] = system: CCRF-CEM; test: Induction of apoptosis in human CCRF-CEM cells assessed effect on procaspase-3 expression at 0.25 to 0.5 uM incubated for 48 hrs by Western blot analysis; assay type: functional, cell-based; settings: dose 0.25-0.5 µM
[10] = system: CCRF-CEM; test: Induction of apoptosis in human CCRF-CEM cells assessed as viable cells at 0.25 uM incubated for 48 hrs by Annexin V-FITC/PI staining based flow cytometry (reference value: 83.4 %); assay type: functional; settings: read-out: Activity
[11] = system: CCRF-CEM; test: Induction of apoptosis in human CCRF-CEM cells assessed as late apoptotic cells at 0.25 uM incubated for 48 hrs by Annexin V-FITC/PI staining based flow cytometry (reference value: 3.2 %); assay type: functional
[12] = system: CCRF-CEM; test: Induction of apoptosis in human CCRF-CEM cells assessed as viable cells at 0.5 uM incubated for 48 hrs by Annexin V-FITC/PI staining based flow cytometry (reference value: 83.4 %); assay type: functional; settings: read-out: Activity
[13] = system: CCRF-CEM; test: Induction of apoptosis in human CCRF-CEM cells assessed as viable cells at 4 uM incubated for 48 hrs by Annexin V-FITC/PI staining based flow cytometry (reference value: 83.4 %); assay type: functional; settings: read-out: Activity
[14] = system: CCRF-CEM; test: Downregulation of ROS level in human CCRF-CEM cells assessed as CAT level at 1 uM incubated for 12 hrs in presence of NADPH by absorbance based assay; assay type: functional, cell-based
[15] = system: CCRF-CEM; test: Antiproliferative activity against human CCRF-CEM cells assessed as cell growth inhibition incubated for 24 to 72 hrs by CCK8 assay; assay type: functional, cell-based; settings: dose 0.1875-20 µM, time 24-72 hrs
[16] = system: CCRF-CEM; test: Downregulation of ROS level in human CCRF-CEM cells assessed as effect on H2O2 level at 0.125 to 0.5 uM incubated for 12 hrs in presence of NADPH by DCFH-DA probe based flow cytometry analysis; assay type: functional, cell-based; settings: dose 0.125-0.5 µM
[17] = system: CCRF-CEM; test: Downregulation of ROS level in human CCRF-CEM cells assessed as effect on CAT level at 0.125 to 0.5 uM incubated for 12 hrs in presence of NADPH by DCFH-DA probe based flow cytometry analysis; assay type: functional, cell-based; settings: dose 0.125-0.5 µM
[18] = system: K562; test: Antiproliferative activity against human K562 cells assessed as cell growth inhibition incubated for 72 hrs by MTT assay; assay type: functional, cell-based; settings: K562, 72 h
[19] = Selectivity index, ratio of IC50 for human HL-60 cells to IC50 for human CCRF-CEM cells
[20] = system: CCRF-CEM; test: Induction of apoptosis in human CCRF-CEM cells assessed as early apoptotic cells at 0.25 uM incubated for 48 hrs by Annexin V-FITC/PI staining based flow cytometry (reference value: 13.4 %); assay type: functional
[21] = system: CCRF-CEM; test: Induction of cell cycle arrest in human CCRF-CEM cells assessed as cell accumulation at S phase at 0.5 uM incubated for 24 hrs by PI staining based flow cytometry analysis (reference value: 15.5 %); assay type: functional
[22] = system: HL-60; test: Antiproliferative activity against human HL-60 cells assessed as cell growth inhibition incubated for 72 hrs by MTT assay; assay type: functional, cell-based; settings: HL-60, 72 h
[23] = system: CCRF-CEM; test: Induction of cell cycle arrest in human CCRF-CEM cells assessed as cell accumulation at S phase at 0.25 uM incubated for 24 hrs by PI staining based flow cytometry analysis (reference value: 15.5 %); assay type: functional
[24] = system: CCRF-CEM; test: Induction of apoptosis in human CCRF-CEM cells assessed effect on cleaved caspase-3 expression at 0.25 to 0.5 uM incubated for 48 hrs by Western blot analysis; assay type: functional, cell-based; settings: dose 0.25-0.5 µM
[25] = system: CCRF-CEM; test: Induction of apoptosis in human CCRF-CEM cells assessed as viable cells at 1 uM incubated for 48 hrs by Annexin V-FITC/PI staining based flow cytometry (reference value: 83.4 %); assay type: functional; settings: read-out: Activity
[26] = system: CCRF-CEM; test: Induction of apoptosis in human CCRF-CEM cells assessed as viable cells at 2 uM incubated for 48 hrs by Annexin V-FITC/PI staining based flow cytometry (reference value: 83.4 %); assay type: functional; settings: read-out: Activity
[27] = system: CCRF-CEM; test: Induction of cell cycle arrest in human CCRF-CEM cells assessed as cell accumulation at G1 phase at 0.25 uM incubated for 24 hrs by PI staining based flow cytometry analysis (reference value: 24.1 %); assay type: functional
[28] = system: CCRF-CEM; test: Induction of cell cycle arrest in human CCRF-CEM cells assessed as cell accumulation at G2/M phase at 2 uM incubated for 24 hrs by PI staining based flow cytometry analysis (reference value: 61.3 %); assay type: functional
[29] = Antiproliferative activity against human L02 cells assessed as cell growth inhibition incubated for 72 hrs by MTT assay; assay type: toxicity, cell-based
[30] = system: CCRF-CEM; test: Induction of apoptosis in human CCRF-CEM cells assessed as necrotic cells at 2 uM incubated for 48 hrs by Annexin V-FITC/PI staining based flow cytometry (reference value: 0.0 %); assay type: functional
[31] = system: A549; test: Antiproliferative activity against human A549 cells assessed as cell growth inhibition incubated for 72 hrs by MTT assay; assay type: functional, cell-based; settings: A549, 72 h
[32] = system: CCRF-CEM; test: Induction of apoptosis in human CCRF-CEM cells assessed as late apoptotic cells at 2 uM incubated for 48 hrs by Annexin V-FITC/PI staining based flow cytometry (reference value: 3.2 %); assay type: functional
[33] = system: CCRF-CEM; test: Induction of apoptosis in human CCRF-CEM cells assessed as necrotic cells at 0.25 uM incubated for 48 hrs by Annexin V-FITC/PI staining based flow cytometry (reference value: 0.0 %); assay type: functional
[34] = system: CCRF-CEM; test: Induction of apoptosis in human CCRF-CEM cells assessed as necrotic cells at 1 uM incubated for 48 hrs by Annexin V-FITC/PI staining based flow cytometry (reference value: 0.0 %); assay type: functional
[35] = system: CCRF-CEM; test: Induction of DNA damage in human CCRF-CEM cells assessed as increase in gammaH2AX phosphorylation at 1 to 4 uM incubated for 24 hrs by DAPI staining based immunofluorescence microscopic analysis; assay type: functional, cell-based; settings: dose 1-4 µM

**Q.** Which IC50 [1] does the source give for `C[C@@H]1CC[C@H]2[C@@H](C)C(OC(=O)c3ccc(N(CCCl)CCCl)cc3)O[C@@H]3O[C@@]4(C)CC[C@@H]1[C@]32OO4` (stereo not given in full) here?
**A.** > 40 µM

**Q.** What about the Activity [2] of the same compound?
**A.** Dose-Dependent Effect

**Q.** What about the Activity [3] of the same compound?
**A.** 35.1%

**Q.** And the Activity [4]?
**A.** 14.8%

**Q.** What about the Activity [5] of the same compound?
**A.** 65.9%

**Q.** What about the Activity [6] of the same compound?
**A.** 26.9%

**Q.** And the Activity [7]?
**A.** Dose-Dependent Effect

**Q.** What about the Selectivity Index [8] of the same compound?
**A.** 1.82

**Q.** And the Activity [9]?
**A.** inactive

**Q.** And the viability at 0.25 µM [10]?
**A.** 67.7%

**Q.** And the Activity [11]?
**A.** 11.7%

**Q.** And the viability at 0.5 µM [12]?
**A.** 64.4%

**Q.** And the viability at 4 µM [13]?
**A.** 47.8%

**Q.** What about the Activity [14] of the same compound?
**A.** inactive

**Q.** What about the Activity [15] of the same compound?
**A.** Dose-Dependent Effect

**Q.** And the Activity [16]?
**A.** Active

**Q.** And the Activity [17]?
**A.** Active

**Q.** What about the IC50 [18] of the same compound?
**A.** 22 µM

**Q.** What about the Selectivity Index [19] of the same compound?
**A.** 17.2

**Q.** And the Activity [20]?
**A.** 20.5%

**Q.** What about the Activity [21] of the same compound?
**A.** 6.8%

**Q.** And the IC50 [22]?
**A.** 2320 nM

**Q.** What about the Activity [23] of the same compound?
**A.** 7.9%

**Q.** What about the AC30 [24] of the same compound?
**A.** inactive

**Q.** And the viability at 1 µM [25]?
**A.** 60.4%

**Q.** What about the viability at 2 µM [26] of the same compound?
**A.** 53.8%

**Q.** And the Activity [27]?
**A.** 26.8%

**Q.** What about the Activity [28] of the same compound?
**A.** 67.1%

**Q.** And the IC50 at 72 h [29]?
**A.** > 40 µM

**Q.** What about the Activity [30] of the same compound?
**A.** 0.1%

**Q.** And the IC50 [31]?
**A.** 2870 nM

**Q.** What about the Activity [32] of the same compound?
**A.** 12.8%

**Q.** And the Activity [33]?
**A.** 0.1%

**Q.** What about the Activity [34] of the same compound?
**A.** 0.1%

**Q.** And the Activity [35]?
**A.** Active

— ChEMBL document CHEMBL5247590, “Novel nitrogen mustard-artemisinin hybrids with potent anti-leukemia action through DNA damage and activation of GPx” (Eur J Med Chem, 2022)
